Results: patent US9758485B2, “Compounds for controlling arthropods” (priority 2013, dated 2017)

Tests used:
[1] = logP determination by HPLC on a reversed-phase column (C18), EEC Directive 79/831 Annex V.A8; format: physicochemical; settings: for logP^a): HPLC-MS method a), Table I-T3; for log P: HPLC-MS, reversed-phase column (C18)
Boophilus microplus = Boophilus microplus - injection test; format: in vivo; settings: application rate 20 μg/animal; injected into engorged adult female ticks; laying of fertile eggs, after 7 days
Experimental: Boophilus microplus—Injection Test
(§1) Solvent: dimethyl sulphoxide
To produce an appropriate active ingredient formulation, 10 mg of active ingredient are mixed with 0.5 ml of solvent and the concentrate is diluted with solvent to the desired concentration.
1 μl of the active ingredient solution is injected into the abdomen of 5 engorged adult female cattle ticks (Boophilus microplus). The animals are transferred into dishes and kept in a climate-controlled room.
Efficacy is assessed after 7 days by laying of fertile eggs. Eggs which are not visibly fertile are stored in a climate-controlled cabinet until the larvae hatch after about 42 days. An efficacy of 100% means that none of the ticks has laid any fertile eggs; 0% means that all the eggs are fertile.

Ctenocephalides felis [2] = test: Ctenocephalides felis - oral test; format: in vivo; settings: application rate 100 ppm in citrated cattle blood; adult fleas; kill after 2 days
Experimental: Ctenocephalides felis—Oral Test
as §1
For the purpose of producing an appropriate active ingredient formulation, 10 mg of active ingredient are mixed with 0.5 ml of dimethyl sulphoxide. Dilution with citrated cattle blood gives the desired concentration.
About 20 unfed adult cat fleas (Ctenocephalides felis) are placed into a chamber which is closed at the top and bottom with gauze. A metal cylinder whose bottom end is closed with parafilm is placed onto the chamber. The cylinder contains the blood/active ingredient preparation, which can be imbibed by the fleas through the parafilm membrane.
After 2 days, the kill in % is determined. 100% means that all of the fleas have been killed; 0% means that none of the fleas have been killed.

Lucilia cuprina = Lucilia cuprina test; format: in vivo; settings: application rate 100 ppm; L1 larvae in minced horsemeat; kill after 2 days
Experimental: as §1
(§2) To produce an appropriate active ingredient formulation, 10 mg of active ingredient are mixed with 0.5 ml of dimethyl sulphoxide, and the concentrate is diluted with water to the desired concentration.
About 20 L1 larvae of the Australian sheep blowfly (Lucilia cuprina) are transferred into a test vessel containing minced horsemeat and the active ingredient preparation of the desired concentration.
After 2 days, the kill in % is determined. 100% means that all the larvae have been killed; 0% means that none of the larvae have been killed.

Musca domestica = Musca domestica test; format: in vivo; settings: adult houseflies, kill after 2 days
Experimental: as §1, §2
Vessels containing a sponge treated with sugar solution and the active ingredient formulation of the desired concentration are populated with 10 adult houseflies (Musca domestica).
After 2 days, the kill in % is determined. 100% means that all of the flies have been killed; 0% means that none of the flies have been killed.

Ctenocephalides felis [3] = test: Ctenocephalides felis - in vitro contact tests with adult cat fleas; format: in vivo; settings: application rate 5 μg/cm^2 (=500 g/ha), after 48 h (dead or moribund)
Experimental: Ctenocephalides felis—In Vitro Contact Tests with Adult Cat Fleas
For the coating of the test tubes, 9 mg of active ingredient are first dissolved in 1 ml of acetone p.a. and then diluted to the desired concentration with acetone p.a. 250 μl of the solution are distributed homogeneously on the inner walls and base of a 25 ml test tube by turning and rocking on an orbital shaker (rocking rotation at 30 rpm for 2 h). With 900 ppm active ingredient solution and internal surface area 44.7 cm^2, given homogeneous distribution, an area-based dose of 5 μg/cm^2 is achieved.
After the solvent has evaporated off, the tubes are populated with 5-10 adult cat fleas (Ctenocephalides felis), sealed with a perforated plastic lid and incubated in a horizontal position at room temperature and ambient humidity. After 48 h, efficacy is determined. To this end, the test tubes are stood upright and the fleas are knocked to the base of the tube. Fleas which remain motionless at the base or move in an uncoordinated manner are considered to be dead or moribund.
100% efficacy means that all the fleas were dead or moribund. 0% efficacy means that no fleas were harmed.

| Compound | logP^a) [1] | efficacy (Boophilus microplus) | efficacy (Ctenocephalides felis [2]) | efficacy (Lucilia cuprina) | efficacy (Musca domestica; application rate 100 ppm) | efficacy (Musca domestica; application rate 4 ppm) | log P [1] | efficacy (Ctenocephalides felis [3]) |
| --- | --- | --- | --- | --- | --- | --- | --- | --- |
| Cc1cc(C(F)(C(F)(F)F)C(F)(F)F)cc(C)c1-n1cc(-c2ccc(Cl)c(C(=O)NCC(F)(F)F)c2)cn1 [I-T3-2] | 4.7 | 100% | 100% | 100% | 100% |  |  |  |
| Cc1cc(C(F)(C(F)(F)F)C(F)(F)F)cc(C)c1-n1cc(-c2ccc(Cl)c(C(=O)NC3CSC3)c2)cn1 [I-T3-4] | 4.7 | 100% | 100% | 100% | 100% |  |  |  |
| Cc1cc(C(F)(C(F)(F)F)C(F)(F)F)cc(C)c1-n1cc(-c2ccc(Cl)c(C(=O)NC3(C(F)(F)F)CC3)c2)cn1 [I-T3-5] | 4.6 | 100% | 100% | 100% | 100% |  |  |  |
| Cc1cc(C(F)(C(F)(F)F)C(F)(F)F)cc(C)c1-n1cc(-c2cncc(C(=O)NC3(C#N)CC3)c2)cn1 [I-T3-8] | 3.4 | 100% | 100% | 100% | 100% |  |  |  |
| N#CC1(NC(=O)c2cc(-c3cnn(-c4ccc(C(F)(C(F)(F)F)C(F)(F)F)cc4OC(F)(F)F)c3)ccc2Cl)CC1 [I-T3-34] | 4.6 | 100% | 100% | 100% | 100% |  |  |  |
| O=C(NC1CC1)c1cc(-c2cnn(-c3ccc(C(F)(C(F)(F)F)C(F)(F)F)cc3OC(F)(F)F)c2)ccc1Cl [I-T3-35] | 4.7 | 100% | 100% | 100% |  | 80% |  |  |
| O=C(NCC(F)(F)F)c1cc(-c2cnn(-c3c(Cl)cc(C(F)(C(F)(F)F)C(F)(F)F)cc3C(F)(F)F)c2)ccc1Cl [I-T3-58] | 4.7 | 100% | 100% | 100% | 100% |  |  |  |
| N#CC1(NC(=O)c2cc(-c3cnn(-c4c(F)cc(C(F)(C(F)(F)F)C(F)(F)F)cc4F)c3)ccc2Cl)CC1 [I-T3-62] | 3.9 | 100% | 100% | 100% | 100% |  |  |  |
| Cc1cc(C(F)(C(F)(F)F)C(F)(F)F)cc(C)c1-n1cc(-c2ccc(Cl)c(C(=O)NC3(C#N)CC3)c2F)cn1 [I-T3-65] | 4.3 | 100% | 100% | 100% | 100% |  |  |  |
| CCc1cc(C(F)(C(F)(F)F)C(F)(F)F)cc(C)c1-n1cc(-c2ccc(Cl)c(C(=O)NC3(C#N)CC3)c2F)cn1 [I-T3-66] | 4.6 | 100% | 100% | 100% | 80% |  |  |  |
| CCc1cc(C(F)(C(F)(F)F)C(F)(F)F)cc(C)c1-n1cc(-c2ccc(Cl)c(C(=O)NC3CC3)c2F)cn1 [I-T3-68] | 4.8 | 100% | 100% | 100% | 80% |  |  |  |
| CCc1cc(C(F)(C(F)(F)F)C(F)(F)F)cc(C)c1-n1cc(-c2cccc(C(=O)NC3CC3)c2F)cn1 [I-T3-70] | 4.7 | 100% | 95% | 100% |  |  |  |  |
| O=C(NC1CC1)c1c(Cl)ccc(-c2cnn(-c3c(Cl)cc(C(F)(C(F)(F)F)C(F)(F)F)cc3Cl)c2)c1F [I-T3-73] | 4.5 | 100% | 100% | 100% | 100% |  |  |  |
| CCc1cc(C(F)(C(F)(F)F)C(F)(F)F)cc(C)c1-n1cc(-c2cncc(C(=O)NC3(C#N)CC3)c2)cn1 [I-T3-76] | 3.4 | 100% | 100% | 90% | 90% |  |  |  |
| CCc1cc(C(F)(C(F)(F)F)C(F)(F)F)cc(C)c1-n1cc(-c2cncc(C(=O)NC3CC3)c2)cn1 [I-T3-77] | 3.4 | 100% | 100% | 100% | 100% |  |  |  |
| CCc1cc(C(F)(C(F)(F)F)C(F)(F)F)ccc1-n1cc(-c2cncc(C(=O)NC3(C#N)CC3)c2)cn1 [I-T3-78] | 3.8 | 100% | 100% | 100% |  |  |  |  |
| CCc1cc(C(F)(C(F)(F)F)C(F)(F)F)ccc1-n1cc(-c2cncc(C(=O)NC3CC3)c2)cn1 [I-T3-79] | 3.3 | 100% | 95% | 80% | 80% |  |  |  |
| CCc1cc(C(F)(F)C(F)(F)F)cc(C)c1-n1cc(-c2ccc(Cl)c(C(=O)NCC(F)(F)F)c2)cn1 [I-T3-82] | 4.0 | 100% | 95% | 100% |  |  |  |  |
| CCc1cc(C(F)(F)C(F)(F)F)cc(C)c1-n1cc(-c2ccc(Cl)c(C(=O)NC3CSC3)c2)cn1 [I-T3-83] | 4.6 | 100% | 95% | 100% |  |  |  |  |
| N#CC1(NC(=O)c2cc(-c3cnn(-c4ccc(OC(F)(F)F)cc4Cl)c3)ccc2Cl)CC1 [I-T3-89] | 3.5 | 100% | 100% | 100% | 100% |  |  |  |
| COCCNc1ncc(-c2cnn(-c3c(Cl)cc(C(F)(C(F)(F)F)C(F)(F)F)cc3Cl)c2)cc1C(=O)NC1CC1 [I-T3-138] |  |  |  |  |  |  | 4.1 | 100% |
| Cc1cc(C(F)(C(F)(F)F)C(F)(F)F)cc(C)c1-n1cc(-c2cnc(C3CC3)c(C(=O)NC3(C#N)CC3)c2)cn1 [I-T3-139] |  | 100% | 100% | 100% | 90% |  | 4.1 |  |
| Cc1cc(C(F)(C(F)(F)F)C(F)(F)F)cc(C)c1-n1cc(-c2cnc(C3CC3)c(C(=O)NC3CC3)c2)cn1 [I-T3-140] |  | 100% | 100% | 100% |  |  | 4.2 |  |
| COc1ncc(-c2cnn(-c3c(C)cc(C(F)(C(F)(F)F)C(F)(F)F)cc3C)c2)cc1C(=O)N(C)C1CC1 [I-T3-144] |  | 100% | 90% | 100% | 100% |  | 4.4 |  |
| Cn1ccc(NC(=O)c2cc(-c3cnn(-c4c(Cl)cc(C(F)(F)F)cc4Cl)c3)cnc2Cl)n1 [I-T3-146] |  | 100% | 100% | 90% |  |  | 2.8 |  |
| CCNC(=O)c1cc(-c2cnn(-c3c(Cl)cc(C(F)(F)F)cc3Cl)c2)cnc1C [I-T3-147] |  |  |  |  |  |  | 4.0 | 100% |
| N#CC1(NC(=O)c2cc(-c3cnn(-c4ncc(C(F)(F)F)cc4C(F)(F)F)c3)ccc2Cl)CC1 [I-T3-149] |  | 100% | 100% | 100% | 100% |  | 3.5 |  |
| O=C(NC1CC1)c1cc(-c2cnn(-c3ncc(C(F)(F)F)cc3C(F)(F)F)c2)ccc1Cl [I-T3-150] |  | 100% | 100% | 100% | 100% |  | 3.6 |  |
| N#CC1(NC(=O)c2cc(-c3cnn(-c4ncc(C(F)(C(F)(F)F)C(F)(F)F)cc4Cl)c3)ccc2Cl)CC1 [I-T3-151] |  | 100% | 100% | 100% | 100% |  | 4.0 |  |
| N#CC1(CNC(=O)c2cc(-c3cnn(-c4c(Cl)cc(C(F)(C(F)(F)F)C(F)(F)F)cc4C(F)(F)F)c3)ccc2Cl)CC1 [I-T3-199] |  |  |  |  |  |  |  | 100% |
